According to US20100298141A1, “SUBSTITUTED PYRIDINE N-OXIDE HERBICIDES” (E. I. DU PONT DE NEMOURS AND COMPANY, priority 2007, published 2010):

Legend:
[1] = system: Russian thistle; assay: Test C pre-/postemergence test; format: in vivo, Salsola kali; conditions: 31 g ai/ha, Preemergence; scale 0 to 100
Method in brief: (§1)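 Seeds were planted and treated preemergence with test chemical in a non-phytotoxic solvent mixture containing surfactant. Postemergence applications of the same formulation went onto plants 2 to 18 cm tall (1- to 4-leaf stage). A dash marks no test result.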

[2] = system: quackgrass; assay: Test F preemergence test; format: in vivo, Elytrigia repens; conditions: scale 0 to 100
Method in brief: (§2)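 Greenhouse screen: test chemical in surfactant-containing non-phytotoxic solvent applied preemergence to sown seeds or postemergence to sugarcane plants; after 14 to 21 days each species scored visually versus controls.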

[3] = system: Italian ryegrass; assay: Test F preemergence test; format: in vivo, Lolium multiflorum; conditions: scale 0 to 100
Method in brief: as §2

[4] = system: bermudagrass; assay: Test F preemergence test; format: in vivo, Cynodon dactylon; conditions: scale 0 to 100
Method in brief: as §2

[5] = system: blackgrass; assay: Test C pre-/postemergence test; format: in vivo, Alopecurus myosuroides; conditions: for Plant response rating, Blackgrass: scale 0 to 100, 0 no effect, 100 complete control
Method in brief: as §1

[6] = system: purple nutsedge; assay: Test F preemergence test; format: in vivo, Cyperus rotundus; conditions: scale 0 to 100
Method in brief: as §2

[7] = system: common ragweed; assay: Test F preemergence test; format: in vivo, Ambrosia elation; conditions: scale 0 to 100
Method in brief: as §2

[8] = system: goosegrass; assay: Test F preemergence test; format: in vivo, Eleusine indica; conditions: scale 0 to 100
Method in brief: as §2

[9] = system: barnyardgrass; assay: Test F preemergence test; format: in vivo, Echinochloa crus-galli; conditions: scale 0 to 100
Method in brief: as §2

[10] = system: woolly cupgrass; assay: Test C pre-/postemergence test; format: in vivo, Eriochloa villosa; conditions: for Plant response rating, Cupgrass, Woolly: scale 0 to 100, 0 no effect, 100 complete control
Method in brief: as §1

[11] = system: large crabgrass; assay: Test F preemergence test; format: in vivo, Digitaria sanguinalis; conditions: scale 0 to 100
Method in brief: as §2

[12] = system: broadleaf signalgrass; assay: Test F preemergence test; format: in vivo, Brachiaria platyphylla; conditions: scale 0 to 100
Method in brief: as §2

[13] = system: Surinam grass; assay: Test F preemergence test; format: in vivo, Brachiaria decumbens; conditions: scale 0 to 100
Method in brief: as §2

[14] = system: kochia; assay: Test F preemergence test; format: in vivo, Kochia scoparia; conditions: scale 0 to 100
Method in brief: as §2

[15] = system: southern sandbur; assay: Test F preemergence test; format: in vivo, Cenchrus echinatus; conditions: scale 0 to 100
Method in brief: as §2

[16] = system: mustard; assay: Test F preemergence test; format: in vivo, Brassica nigra; conditions: scale 0 to 100
Method in brief: as §2

[17] = system: corn; assay: Test C pre-/postemergence test; format: in vivo, Zea mays; conditions: for Plant response rating, Corn: scale 0 to 100, 0 no effect, 100 complete control
Method in brief: as §1

[18] = 31 g ai/ha, Preemergence, scale 0 to 100
[19] = 62 g ai/ha, preemergence, scale 0 (no effect) to 100 (complete control)
[20] = preemergence, 125 g ai/ha, scale 0 (no effect) to 100 (complete control)

Compound: Cn1nc(C(F)(F)F)c(C[S+]([O-])c2cccc[n+]2[O-])c1OC(F)F (centres unmarked) [Compound 3]
- Russian Thistle plant response rating [1]: 0
- Plant response rating, Quackgrass ([2]; 8 g ai/ha, preemergence): 0
- Quackgrass plant response rating ([2]; 62 g ai/ha, Preemergence): 75
- Plant response rating, Quackgrass ([2]; Preemergence, 16 g ai/ha): 15
- Plant response rating, Quackgrass ([2]; Preemergence, 31 g ai/ha): 70
- Plant response rating, Ryegrass, Italian ([3]; 8 g ai/ha, preemergence): 0
- Ryegrass, Italian plant response rating ([3]; 62 g ai/ha, Preemergence): 80
- Plant response rating, Ryegrass, Italian ([3]; Preemergence, 16 g ai/ha): 30
- Plant response rating, Ryegrass, Italian ([3]; Preemergence, 31 g ai/ha): 65
- Plant response rating, Bermudagrass ([4]; 8 g ai/ha, preemergence): 0
- Bermudagrass plant response rating ([4]; 62 g ai/ha, Preemergence): 85
- Plant response rating, Bermudagrass ([4]; Preemergence, 16 g ai/ha): 0
- Plant response rating, Bermudagrass ([4]; Preemergence, 31 g ai/ha): 65
- Blackgrass plant response rating [5, 18]: 70
- Blackgrass plant response rating [5, 19]: 70
- Plant response rating (0 to 100), Blackgrass ([5]; Postemergence, 31 g ai/ha): 0
- Plant response rating, Blackgrass ([5]; Postemergence, 62 g ai/ha): 0
- Plant response rating, Blackgrass ([5]; Postemergence, 125 g ai/ha): 0
- Plant response rating, Blackgrass ([5]; Postemergence, 250 g ai/ha): 20
- Plant response rating (0 to 100), Blackgrass ([5]; Preemergence, 250 g ai/ha): 100
- Blackgrass plant response rating [5, 20]: 100
- Plant response rating, Purple Nutsedge ([6]; 8 g ai/ha, preemergence): 0
- Purple Nutsedge plant response rating ([6]; 62 g ai/ha, Preemergence): 80
- Plant response rating, Purple Nutsedge ([6]; Preemergence, 16 g ai/ha): 60
- Plant response rating, Purple Nutsedge ([6]; Preemergence, 31 g ai/ha): 75
- Plant response rating, Ragweed ([7]; 8 g ai/ha, preemergence): 0
- Ragweed plant response rating ([7]; 62 g ai/ha, Preemergence): 90
- Plant response rating, Ragweed ([7]; Preemergence, 16 g ai/ha): 60
- Plant response rating, Ragweed ([7]; Preemergence, 31 g ai/ha): 80
- Plant response rating, Goosegrass ([8]; 8 g ai/ha, preemergence): 0
- Goosegrass plant response rating ([8]; 62 g ai/ha, Preemergence): 98
- Plant response rating, Goosegrass ([8]; Preemergence, 16 g ai/ha): 40
- Plant response rating, Goosegrass ([8]; Preemergence, 31 g ai/ha): 95
- Plant response rating, Barnyardgrass ([9]; 8 g ai/ha, preemergence): 40
- Barnyardgrass plant response rating ([9]; 62 g ai/ha, Preemergence): 100
- Plant response rating, Barnyardgrass ([9]; Preemergence, 16 g ai/ha): 80
- Plant response rating, Barnyardgrass ([9]; Preemergence, 31 g ai/ha): 90
- Cupgrass, Woolly plant response rating [10, 18]: 60
- Cupgrass, Woolly plant response rating [10, 19]: 60
- Plant response rating (0 to 100), Cupgrass, Woolly ([10]; Postemergence, 31 g ai/ha): 0
- Plant response rating, Cupgrass, Woolly ([10]; Postemergence, 62 g ai/ha): 0
- Plant response rating, Cupgrass, Woolly ([10]; Postemergence, 125 g ai/ha): 20
- Plant response rating, Cupgrass, Woolly ([10]; Postemergence, 250 g ai/ha): 40
- Plant response rating (0 to 100), Cupgrass, Woolly ([10]; Preemergence, 250 g ai/ha): 100
- Cupgrass, Woolly plant response rating [10, 20]: 85
- Plant response rating, Crabgrass, Large ([11]; 8 g ai/ha, preemergence): 0
- Crabgrass, Large plant response rating ([11]; 62 g ai/ha, Preemergence): 100
- Plant response rating, Crabgrass, Large ([11]; Preemergence, 16 g ai/ha): 20
- Plant response rating, Crabgrass, Large ([11]; Preemergence, 31 g ai/ha): 70
- Plant response rating, Signalgrass ([12]; 8 g ai/ha, preemergence): 0
- Plant response rating, Signalgrass ([12]; 16 g ai/ha, preemergence): 0
- Signalgrass plant response rating ([12]; 62 g ai/ha, Preemergence): 75
- Plant response rating, Signalgrass ([12]; Preemergence, 31 g ai/ha): 75
- Plant response rating, Surinam Grass ([13]; 8 g ai/ha, preemergence): 0
- Plant response rating, Surinam Grass ([13]; 16 g ai/ha, preemergence): 0
- Surinam Grass plant response rating ([13]; 62 g ai/ha, Preemergence): 95
- Plant response rating, Surinam Grass ([13]; Preemergence, 31 g ai/ha): 85
- Plant response rating, Kochia ([14]; 8 g ai/ha, preemergence): 20
- Kochia plant response rating ([14]; 62 g ai/ha, Preemergence): 100
- Plant response rating, Kochia ([14]; Preemergence, 16 g ai/ha): 30
- Plant response rating, Kochia ([14]; Preemergence, 31 g ai/ha): 65
- Plant response rating, Sandbur ([15]; 8 g ai/ha, preemergence): 20
- Plant response rating, Sandbur ([15]; 16 g ai/ha, preemergence): 65
- Sandbur plant response rating ([15]; 62 g ai/ha, Preemergence): 95
- Plant response rating, Sandbur ([15]; Preemergence, 31 g ai/ha): 90
- Plant response rating, Black Mustard ([16]; 8 g ai/ha, preemergence): 35
- Black Mustard plant response rating ([16]; 62 g ai/ha, Preemergence): 100
- Plant response rating, Black Mustard ([16]; Preemergence, 16 g ai/ha): 60
- Plant response rating, Black Mustard ([16]; Preemergence, 31 g ai/ha): 95
- Corn plant response rating [17, 18]: 50
- Corn plant response rating [17, 19]: 75
- Plant response rating (0 to 100), Corn ([17]; Postemergence, 31 g ai/ha): 0
- Plant response rating, Corn ([17]; Postemergence, 62 g ai/ha): 5
- Plant response rating, Corn ([17]; Postemergence, 125 g ai/ha): 5
- Plant response rating, Corn ([17]; Postemergence, 250 g ai/ha): 5
- Plant response rating (0 to 100), Corn ([17]; Preemergence, 250 g ai/ha): 98
- Corn plant response rating [17, 20]: 90
